Test results from BigSolDB 2.1.

Which results are given for `COCC(=O)Nc1c(I)c(C(=O)NCC(O)CO)c(I)c(C(=O)N(C)CC(O)CO)c1I` (stereo not given)?
solubility (mole fraction) (in DMF, 273.15 K): 0.00368; solubility (mole fraction) (in DMF, 278.15 K): 0.0038; solubility (mole fraction) (in DMF, 283.15 K): 0.00394; solubility (mole fraction) (in DMF, 288.15 K): 0.00409; solubility (mole fraction) (in DMF, 293.15 K): 0.00427; solubility (mole fraction) (in DMF, 298.15 K): 0.00446; solubility (mole fraction) (in DMF, 303.15 K): 0.00467; solubility (mole fraction) (in DMF, 308.15 K): 0.0049; solubility (mole fraction) (in DMF, 313.15 K): 0.00517; solubility (mole fraction) (in DMF, 318.15 K): 0.00544; solubility (mole fraction) (in acetone, 273.15 K): 3.54e-05; solubility (mole fraction) (in acetone, 278.15 K): 4.29e-05; solubility (mole fraction) (in acetone, 283.15 K): 5.29e-05; solubility (mole fraction) (in acetone, 288.15 K): 6.52e-05; solubility (mole fraction) (in acetone, 293.15 K): 7.88e-05; solubility (mole fraction) (in acetone, 298.15 K): 9.34e-05; solubility (mole fraction) (in acetone, 303.15 K): 0.00011; solubility (mole fraction) (in acetone, 308.15 K): 0.000128; solubility (mole fraction) (in acetone, 313.15 K): 0.000149; solubility (mole fraction) (in acetone, 318.15 K): 0.000171; solubility (mole fraction) (in ethanol, 273.15 K): 0.000152; solubility (mole fraction) (in ethanol, 278.15 K): 0.000178; solubility (mole fraction) (in ethanol, 283.15 K): 0.000215; solubility (mole fraction) (in ethanol, 288.15 K): 0.000254; solubility (mole fraction) (in ethanol, 293.15 K): 0.000296; solubility (mole fraction) (in ethanol, 298.15 K): 0.000339; solubility (mole fraction) (in ethanol, 303.15 K): 0.000384; solubility (mole fraction) (in ethanol, 308.15 K): 0.000437; solubility (mole fraction) (in ethanol, 313.15 K): 0.000495; solubility (mole fraction) (in ethanol, 318.15 K): 0.000558; solubility (mole fraction) (in ethyl acetate, 273.15 K): 1.36e-05; solubility (mole fraction) (in ethyl acetate, 278.15 K): 2.01e-05; solubility (mole fraction) (in ethyl acetate, 283.15 K): 2.74e-05; solubility (mole fraction) (in ethyl acetate, 288.15 K): 3.57e-05; solubility (mole fraction) (in ethyl acetate, 293.15 K): 4.52e-05; solubility (mole fraction) (in ethyl acetate, 298.15 K): 5.65e-05; solubility (mole fraction) (in ethyl acetate, 303.15 K): 6.84e-05; solubility (mole fraction) (in ethyl acetate, 308.15 K): 8.46e-05; solubility (mole fraction) (in ethyl acetate, 313.15 K): 0.000101; solubility (mole fraction) (in ethyl acetate, 318.15 K): 0.000127; solubility (mole fraction) (in isopropanol, 273.15 K): 5.1e-05; solubility (mole fraction) (in isopropanol, 278.15 K): 6.23e-05; solubility (mole fraction) (in isopropanol, 283.15 K): 7.52e-05; solubility (mole fraction) (in isopropanol, 288.15 K): 9.01e-05; solubility (mole fraction) (in isopropanol, 293.15 K): 0.000108; solubility (mole fraction) (in isopropanol, 298.15 K): 0.000128; solubility (mole fraction) (in isopropanol, 303.15 K): 0.00015; solubility (mole fraction) (in isopropanol, 308.15 K): 0.000177; solubility (mole fraction) (in isopropanol, 313.15 K): 0.000203; solubility (mole fraction) (in isopropanol, 318.15 K): 0.000233; solubility (mole fraction) (in methanol, 273.15 K): 0.000236; solubility (mole fraction) (in methanol, 278.15 K): 0.000282; solubility (mole fraction) (in methanol, 283.15 K): 0.000349; solubility (mole fraction) (in methanol, 288.15 K): 0.000419; solubility (mole fraction) (in methanol, 293.15 K): 0.000496; solubility (mole fraction) (in methanol, 298.15 K): 0.000576; solubility (mole fraction) (in methanol, 303.15 K): 0.000666; solubility (mole fraction) (in methanol, 308.15 K): 0.00077; solubility (mole fraction) (in methanol, 313.15 K): 0.00088; solubility (mole fraction) (in methanol, 318.15 K): 0.000997; solubility (mole fraction) (in toluene, 273.15 K): 9.9e-06; solubility (mole fraction) (in toluene, 278.15 K): 1.08e-05; solubility (mole fraction) (in toluene, 283.15 K): 1.19e-05; solubility (mole fraction) (in toluene, 288.15 K): 1.31e-05; solubility (mole fraction) (in toluene, 293.15 K): 1.43e-05; solubility (mole fraction) (in toluene, 298.15 K): 1.56e-05; solubility (mole fraction) (in toluene, 303.15 K): 1.69e-05; solubility (mole fraction) (in toluene, 308.15 K): 1.83e-05; solubility (mole fraction) (in toluene, 313.15 K): 1.97e-05; solubility (mole fraction) (in toluene, 318.15 K): 2.12e-05
